Usually IC50 stands for the midpoint of a concentration-inhibition curve.

In data set [1] the target is T1, α+β4 BK channels (hSlo α subunit with human β4 subunit) (Homo sapiens, UniProt Q12791).
T1 construct: expressed in transfected cells; host or cells: HEK293 (transient)
Kind of data set: Patch clamp of α+β4 BK channels expressed in human embryonic kidney cells. It is filed as cell-based. As to conditions: for h = Hill coefficient: α + β4. Here is the method: (§1) Current amplitude (I′) 5 minutes after addition of increasing lolitriol concentrations, shown as a fraction of the control response. Lolitriol was applied to α+β1 channels (solid circles) and to α+β4 channels (open circles). 31-epilolitrem B was applied to α+β1 channels (solid triangles) and to α+β4 channels (open triangles). Shaded triangles are data points from a single cell to which the curve was fitted. Lolitrem B was applied to hSlo channels (solid squares) a previous study and is shown for comparison. The current response was averaged over the last half of a voltage pulse to +150 mV for 50 ms, with 10 μM internal free calcium. The vertical bars show ±1 S.E.M. in 3 or more cells. The curve is a fit of a Hill-type equation to the data.
(§2) We used BK channels containing beta subunits that are expressed in smooth muscle ([…]) and brain (β4). BK channels with subunit combinations α+β1 or α+β4 were expressed in human embryonic kidney cells and their function assayed by patch clamping.
(§3) hSlo α subunit large conductance calcium-activated potassium channels in pcDNA3 (Meera et al., 1997) together with the human β4 subunit in pEGFP-N1 were transiently expressed in human embryonic kidney cells (HEK293). HEK cells were grown in a mix of DMEM (Dulbecco's Modified Eagle Medium) and 2.5 mM HEPES (N-[2-Hydroxyethyl]-piperazine-N′-[2-ethanesulfonic acid]), supplemented with minimal essential amino acids and 10% fetal bovine serum. Cells were subsequently plated onto 24-well plates, grown to 95% confluency and transfected 24 hours later with 10 μg of hSlo, 8 μg of β4 and 2 μl Lipofectamine 2000™. Cells were plated onto cover slips 24 hours later. Transfected cells expressed green fluorescent protein and were identified under UV light by their fluorescence.
For orientation: Patch clamp records ionic current or voltage across a cell membrane.

The target in data set [2] is T2, hSlo α subunit large conductance calcium-activated potassium (BK) channels (Homo sapiens, UniProt Q12791).
T2 construct: expressed in transfected cells; host or cells: HEK293 (transient; co-transfected with CD4 as a marker)
Kind of data set: Inside-out patch clamp of hSlo α subunit BK channels expressed in HEK293 cells. The settings on record: for BK channel current as fraction of the control response: α subunit. It is filed as cell-based. The protocol:
In this experiment, hSlo α subunit large conductance calcium-activated potassium (BK) channels with an N-terminal c-myc tag in the mammalian vector pcDNA (Meera et al, 1997) were transiently expressed in human embryonic kidney cells (cell type HEK293).
Human embryonic kidney cells were grown in a mix of DMEM (Dulbecco's Modified Eagle Medium, GibcoBRL Cat#12100-038) and 2.5 mM HEPES (N-[2-Hydroxyethyl]piperazine-N′-[2-ethanesulfonic acid]), supplemented with minimal essential amino acids and 10% fetal bovine serum.
Cells were subsequently plated into 24-well plates, grown to 95% confluency and transfected 24 hours later with 10 μg of hSlo and 2 μg CD4 (pcDNA) and 2 µl Lipofectamine 2000™.
Cells were plated onto cover slips 24 hours later. CD4 antibody-labelled beads were used to identify transfected cells. Macroscopic currents were recorded from excised inside-out patches at 3 days post-transfection.
A stock of 100 μM Lolitrem B was made up in dimethyl sulfoxide (DMSO). This was diluted to the appropriate concentration in electrophysiological solutions.
The bath solution that was applied to the internal side of the cell membrane of the inside-out membrane patch was (mM): 140 KMeSO3, 2 KCl, 20 HEPES (N-[2-Hydroxyethyl]piperazine-N′-[2-ethanesulfonic acid]), 5 HEDTA (N-([2-hydroxyethyl)ethylene-diaminetriacetic acid) and 3.65 CaCl2 to give 10 μM free calcium with a pH of 7.2.
The pipette solution applied to the extemal side of the cell membrane of the inside-out membrane patch was (mM): 140 KMeSO3, 2 KCl, 20 HEPES, and 2 MgCl2, with a pH of 7.2.
Macroscopic currents were recorded in an inside-out patch-clamp configuration using an amplifier, interface and data collection software. Data were filtered at 5 kHz and sampled at 20 μs intervals. Fast capacitance compensation was used to cancel the fast transient. Leak subtraction was used although the background potassium current was small.
Channels were activated by voltage pulses to +150 mV every minute in the presence of 10 μM free calcium. Control current responses were recorded over 5 minutes. Only patches that remained stable over this time were used in experiments.
Each concentration of lolitrem B was applied for 5 minutes or until the current response had stabilised and fractional block calculated as the decrease in current as a fraction of the control. The current amplitude was the mean current over the last half of the voltage pulse to +150 mV.

For another data set, the target named is T3, α+β1 BK channels (Homo sapiens, UniProt Q12791).
T3 construct: expressed in transfected cells; host or cells: human embryonic kidney cells (HEK293)
The experiment in a line: Patch clamp of α+β1 BK channels expressed in human embryonic kidney cells. It is filed as cell-based. The settings on record: for IC50: IC50, α + β1, +150 mV, 10 μM internal free calcium; for h = Hill coefficient: α + β1. Here is the method:
as §1, §2, §3

For data set [3], the target named is T4, BK channel (Homo sapiens, UniProt Q12791). The experiment in a line: Degree of antagonist inhibition of BK channels, subunit composition not stated. It is filed as cell-based.
The test system of the next data set is mice. The settings on record: known from literature (Munday-Finch); cited from earlier work.
Data set [4] deals with T4, BK channel. As to conditions: McMillan et al., 2003; cited from earlier work.

Several values for one entry are separate records, joined by “and”; a condition that tells them apart may be missing. Equal values may be shown once. Entries after “also recorded” stand apart in the source; their conditions may differ.

T3 sequence (Q12791 whole entry): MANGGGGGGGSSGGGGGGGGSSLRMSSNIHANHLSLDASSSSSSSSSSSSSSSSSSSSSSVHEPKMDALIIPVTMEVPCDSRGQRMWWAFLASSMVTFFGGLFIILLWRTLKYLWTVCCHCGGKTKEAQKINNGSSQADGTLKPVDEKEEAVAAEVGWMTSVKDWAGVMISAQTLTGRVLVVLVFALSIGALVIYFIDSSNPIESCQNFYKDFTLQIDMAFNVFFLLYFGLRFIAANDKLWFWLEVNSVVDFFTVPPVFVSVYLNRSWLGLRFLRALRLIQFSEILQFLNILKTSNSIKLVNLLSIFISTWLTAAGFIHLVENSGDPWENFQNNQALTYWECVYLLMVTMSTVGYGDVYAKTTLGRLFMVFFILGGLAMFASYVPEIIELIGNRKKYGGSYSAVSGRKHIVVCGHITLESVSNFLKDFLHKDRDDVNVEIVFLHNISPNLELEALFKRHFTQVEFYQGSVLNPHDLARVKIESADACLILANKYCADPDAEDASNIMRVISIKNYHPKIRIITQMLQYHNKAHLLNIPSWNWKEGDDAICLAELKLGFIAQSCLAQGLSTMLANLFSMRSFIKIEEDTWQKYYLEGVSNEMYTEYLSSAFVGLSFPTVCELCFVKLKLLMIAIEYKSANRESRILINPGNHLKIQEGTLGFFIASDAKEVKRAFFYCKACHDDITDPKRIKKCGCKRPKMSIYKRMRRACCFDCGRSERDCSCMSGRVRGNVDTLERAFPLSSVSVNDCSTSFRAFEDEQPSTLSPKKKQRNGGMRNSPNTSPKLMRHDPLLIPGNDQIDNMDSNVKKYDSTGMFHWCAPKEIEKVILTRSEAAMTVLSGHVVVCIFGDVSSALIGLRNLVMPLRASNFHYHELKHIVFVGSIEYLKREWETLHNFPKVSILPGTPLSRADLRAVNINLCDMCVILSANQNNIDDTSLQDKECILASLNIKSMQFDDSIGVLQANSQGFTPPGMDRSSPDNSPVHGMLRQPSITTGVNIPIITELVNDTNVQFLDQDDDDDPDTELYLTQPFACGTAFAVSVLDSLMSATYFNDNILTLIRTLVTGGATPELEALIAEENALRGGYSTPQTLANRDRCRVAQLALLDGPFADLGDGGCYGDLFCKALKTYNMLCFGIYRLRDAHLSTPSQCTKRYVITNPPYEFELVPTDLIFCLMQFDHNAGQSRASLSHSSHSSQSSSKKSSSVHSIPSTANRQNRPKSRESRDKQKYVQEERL
T3 sequence (Q16558 whole entry partner): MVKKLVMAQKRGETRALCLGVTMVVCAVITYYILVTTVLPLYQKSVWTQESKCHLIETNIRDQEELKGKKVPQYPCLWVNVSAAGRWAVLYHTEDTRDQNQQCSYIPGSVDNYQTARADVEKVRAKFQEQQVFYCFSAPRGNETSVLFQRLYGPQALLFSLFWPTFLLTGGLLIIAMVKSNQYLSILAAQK
T2 sequence (Q12791 whole entry): as the sequence (Q12791 whole entry) above
T4 sequence (Q12791 whole entry): as above
T1 sequence (Q12791 whole entry): as above
T1 sequence (Q86W47 whole entry partner): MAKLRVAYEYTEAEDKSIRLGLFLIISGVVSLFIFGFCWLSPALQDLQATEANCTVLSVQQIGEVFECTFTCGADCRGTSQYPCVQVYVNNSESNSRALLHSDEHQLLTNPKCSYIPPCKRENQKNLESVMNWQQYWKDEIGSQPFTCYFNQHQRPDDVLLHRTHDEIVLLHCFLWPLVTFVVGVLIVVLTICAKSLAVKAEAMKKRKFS

As for `CC(C)=CC1OC2C(OC3CCC4(C)C5(C)c6[nH]c7ccc8c(c7c6CC5CCC4(O)C34OC24)CC2C(C8=O)C(C)(C)OC2(C)C)C(C)(C)O1` (centres unmarked) [31-epilolitrem B], the “h = Hill coefficient” value in data set [1] was determined as 2.2. For the same compound, the “BK channel current as fraction of the control response” value (“BK channel current as fraction” for short) in data set [2] (100 nM) is 0.06±0.02. In addition, in data set [2] (after 100 nM, wash-out with control solution for 26 minutes, one experiment), the “current response as fraction of control after wash-out” value was determined as 0.59. For the same compound, at α+β1 BK channels, the IC50 is ~58 nM and 58 nM; the “h = Hill coefficient” value stood at 2.7. Further, at BK channel [3] (approximately 200 nM), the “degree of antagonist inhibition” value is “approximately 100%”. The tremorgenicity result in the data set on mice is reported as “non-tremorgenic”.

On to `CC1(C)OC(C)(C)C2C(=O)c3ccc4[nH]c5c(c4c3CC21)C[C@@H]1CC[C@@]2(O)C3=CC(=O)[C@@H](C(C)(C)O)OC3CC[C@]2(C)[C@@]51C` (some centres unmarked) [lolilline], for which the tremorgenicity result in the data set on mice was “non-tremorgenic”.

desoxypaxilline [reference compound]: the “concentration needed for the same degree of BK inhibition as paxilline” value at BK channel [4] is listed as 24 times. Also, the tremorgenicity entry in the data set with mice is given as “non-tremorgenic”.

Take `CC(C)=CCOC(C)(C)[C@H]1O[C@H]2CC[C@@]3(C)[C@@](O)(CC[C@H]4Cc5c([nH]c6ccc7c(c56)C[C@@H]5[C@@H](C7=O)C(C)(C)OC5(C)C)[C@@]43C)[C@]23O[C@@H]3[C@@H]1O` [lolitrem E]: the “BK channel current as fraction” value in data set [2] (100 nM) is reported as 0.01. In data set [2] (approximately 100 nM), the “degree of antagonist inhibition” value is reported as “approximately 100%”. In the data set on mice, the tremorgenicity result is listed as “partial-tremorgenic”.

Regarding `CC(C)=CC1OC2C(OC3CCC4(C)C5(C)c6[nH]c7ccc8c(c7c6CC5CCC4(O)C34OC24)CC2C(C8=O)C(C)(C)OC2(C)C)C(C)(C)O1` (centres unmarked) [lolitrem B], the “inhibition of the BK channel current (in words)” value in data set [2] (2 nM) is “partial inhibition”; in data set [2] (20 nM applied to the perfusion bath), “complete inhibition”. Further, in data set [2] (10 nM or greater, wash-out with control solution for 30 minutes at 4 ml/min), the “reversal of current block by wash-out” value is recorded as “not able to be reversed; also recorded: could not be reversed”. The IC50 in data set [2] (IC50 (concentration of half maximal inhibition), α alone, voltage pulse to +150 mV, 10 μM free calcium, Hill equation fit, 11 cells) is 3.7 nM and ~3.7 nM. Moreover, in data set [2] (approximately 20 nM), the “degree of antagonist inhibition” value is “approximately 97%”. The “h = Hill coefficient” value in data set [2] (α alone) came out at 1.7. The tremorgenicity result in the data set on mice is “tremorgenic”.

Take `CC(C)(O)C1OC2CCC3(C)C4(C)c5[nH]c6ccc7c(c6c5CC4CCC3(O)C23OC3C1O)CC1C(C7=O)C(C)(C)OC1(C)C` (centres unmarked) [lolitriol]: the “h = Hill coefficient” value in data set [1] was 2.7; on α+β1 BK channels it was 2.3. For the same compound, the “concentration required to inhibit α+β4 channels compared with α+β1 channels” value in data set [1] (α+β4 versus α+β1) is reported as “Twice”. For the same compound, the results for the “BK channel current as fraction” value in data set [2] (100 nM) and in data set [2] (200 nM) were 0.29 and 0.25, respectively. Moreover, in data set [2] (wash-out with control solution for 30 minutes at 4 ml/min), the “current response as fraction of control after wash-out” value turned out to be 0.86. Besides, the IC50 at α+β1 BK channels is ~195 nM and 195 nM. The “degree of antagonist inhibition” value at BK channel [3] (approximately 1000 nM) was “approximately 100%”. For the same compound, in the data set with mice, the tremorgenicity entry is recorded as “non-tremorgenic”.
